Data from PubChem BioAssay (NCI).
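Assay format: 96-well plates, 48-hour exposure. GI50 = concentration required for 50% inhibition of growth. Definition used: TGI = concentration required for complete inhibition of growth.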

How the values were obtained:
Test in all cases: NCI-60 cell line screen, 48 h
786-0 renal = system: 786-0 renal
A549 NSCLC = system: A549 NSCLC
ACHN renal = system: ACHN renal
BT-549 breast = system: BT-549 breast
CAKI-1 renal = system: CAKI-1 renal
CCRF-CEM leukemia = system: CCRF-CEM leukemia
COLO 205 colon = system: COLO 205 colon
DU-145 prostate = system: DU-145 prostate
EKVX NSCLC = system: EKVX NSCLC
HCC-2998 colon = system: HCC-2998 colon
HCT-116 colon = system: HCT-116 colon
HCT-15 colon = system: HCT-15 colon
HL-60(TB) leukemia = system: HL-60(TB) leukemia
HOP-62 NSCLC = system: HOP-62 NSCLC
HOP-92 NSCLC = system: HOP-92 NSCLC
HS 578T breast = system: HS 578T breast
IGROV1 ovarian = system: IGROV1 ovarian
K-562 leukemia = system: K-562 leukemia
KM12 colon = system: KM12 colon
LOX IMVI melanoma = system: LOX IMVI melanoma
M14 melanoma = system: M14 melanoma
MCF7 breast = system: MCF7 breast
MDA-MB-231 breast = system: MDA-MB-231 breast
MDA-MB-435 = system: MDA-MB-435
NCI-H23 lung = system: NCI-H23 lung
NCI-H460 lung = system: NCI-H460 lung
NCI-H522 lung = system: NCI-H522 lung
NCI/ADR-RES ovarian = system: NCI/ADR-RES ovarian
OVCAR-3 ovarian = system: OVCAR-3 ovarian
OVCAR-5 ovarian = system: OVCAR-5 ovarian
OVCAR-8 ovarian = system: OVCAR-8 ovarian
PC-3 prostate = system: PC-3 prostate
RPMI-8226 leukemia = system: RPMI-8226 leukemia
SF-268 CNS = system: SF-268 CNS
SF-295 CNS = system: SF-295 CNS
SF-539 CNS = system: SF-539 CNS
SK-MEL-2 melanoma = system: SK-MEL-2 melanoma
SK-MEL-28 melanoma = system: SK-MEL-28 melanoma
SK-MEL-5 melanoma = system: SK-MEL-5 melanoma
SK-OV-3 ovarian = system: SK-OV-3 ovarian
SN12C renal = system: SN12C renal
SNB-19 CNS = system: SNB-19 CNS
SR leukemia = system: SR leukemia
SW-620 colon = system: SW-620 colon
T-47D breast = system: T-47D breast
TK-10 renal = system: TK-10 renal
U251 CNS = system: U251 CNS
UACC-257 melanoma = system: UACC-257 melanoma
UACC-62 melanoma = system: UACC-62 melanoma
UO-31 renal = system: UO-31 renal

**Q.** How did the GI50 (786-0 renal) turn out when Clc1cccc(NC=Nc2ccc(-c3nc4ccccc4s3)cc2)c1 was run?
**A.** 10.6 µM

**Q.** What about the TGI (786-0 renal) of the same compound?
**A.** 18.6 µM

**Q.** What about the GI50 (A549 NSCLC) of the same compound?
**A.** 9.11 µM

**Q.** And the TGI (A549 NSCLC)?
**A.** 20.4 µM

**Q.** What about the GI50 (ACHN renal) of the same compound?
**A.** 11.7 µM

**Q.** What about the TGI (ACHN renal) of the same compound?
**A.** 27.6 µM

**Q.** What about the GI50 (BT-549 breast) of the same compound?
**A.** 23.3 µM

**Q.** What about the TGI (BT-549 breast) of the same compound?
**A.** > 50 µM

**Q.** And the GI50 (CAKI-1 renal)?
**A.** 17.8 µM

**Q.** And the TGI (CAKI-1 renal)?
**A.** > 50 µM

**Q.** What about the GI50 (CCRF-CEM leukemia) of the same compound?
**A.** 10.5 µM

**Q.** What about the TGI (CCRF-CEM leukemia) of the same compound?
**A.** 25.4 µM

**Q.** What about the GI50 (COLO 205 colon) of the same compound?
**A.** 12.2 µM

**Q.** And the TGI (COLO 205 colon)?
**A.** 39.9 µM

**Q.** What about the GI50 (DU-145 prostate) of the same compound?
**A.** 16.4 µM

**Q.** What about the TGI (DU-145 prostate) of the same compound?
**A.** 38.8 µM

**Q.** What about the GI50 (EKVX NSCLC) of the same compound?
**A.** 3.97 µM

**Q.** What about the TGI (EKVX NSCLC) of the same compound?
**A.** 29.9 µM

**Q.** What about the GI50 (HCC-2998 colon) of the same compound?
**A.** 16 µM

**Q.** And the TGI (HCC-2998 colon)?
**A.** 42.5 µM

**Q.** And the GI50 (HCT-116 colon)?
**A.** 11 µM

**Q.** What about the TGI (HCT-116 colon) of the same compound?
**A.** 24.1 µM

**Q.** What about the GI50 (HCT-15 colon) of the same compound?
**A.** 9.48 µM

**Q.** And the TGI (HCT-15 colon)?
**A.** 20 µM

**Q.** What about the GI50 (HL-60(TB) leukemia) of the same compound?
**A.** 10.5 µM

**Q.** And the TGI (HL-60(TB) leukemia)?
**A.** 27.3 µM

**Q.** And the GI50 (HOP-62 NSCLC)?
**A.** 42.3 µM

**Q.** And the TGI (HOP-62 NSCLC)?
**A.** > 50 µM

**Q.** And the GI50 (HOP-92 NSCLC)?
**A.** 19.6 µM

**Q.** What about the TGI (HOP-92 NSCLC) of the same compound?
**A.** > 50 µM

**Q.** What about the GI50 (HS 578T breast) of the same compound?
**A.** 32.6 µM

**Q.** What about the TGI (HS 578T breast) of the same compound?
**A.** > 50 µM

**Q.** What about the GI50 (IGROV1 ovarian) of the same compound?
**A.** 11.3 µM

**Q.** What about the TGI (IGROV1 ovarian) of the same compound?
**A.** 24.3 µM

**Q.** What about the GI50 (K-562 leukemia) of the same compound?
**A.** 7.81 µM

**Q.** And the TGI (K-562 leukemia)?
**A.** 18.2 µM

**Q.** What about the GI50 (KM12 colon) of the same compound?
**A.** 13.7 µM

**Q.** What about the TGI (KM12 colon) of the same compound?
**A.** 38.3 µM

**Q.** What about the GI50 (LOX IMVI melanoma) of the same compound?
**A.** 9.46 µM

**Q.** And the TGI (LOX IMVI melanoma)?
**A.** 17.5 µM

**Q.** What about the GI50 (M14 melanoma) of the same compound?
**A.** 14.8 µM

**Q.** What about the TGI (M14 melanoma) of the same compound?
**A.** 29.7 µM

**Q.** What about the GI50 (MCF7 breast) of the same compound?
**A.** 9.44 µM

**Q.** And the TGI (MCF7 breast)?
**A.** 35.6 µM

**Q.** And the GI50 (MDA-MB-231 breast)?
**A.** 9.72 µM

**Q.** What about the TGI (MDA-MB-231 breast) of the same compound?
**A.** 23.6 µM

**Q.** What about the GI50 (MDA-MB-435) of the same compound?
**A.** 14.3 µM

**Q.** And the TGI (MDA-MB-435)?
**A.** 32.7 µM

**Q.** And the GI50 (NCI-H23 lung)?
**A.** 16.1 µM

**Q.** What about the TGI (NCI-H23 lung) of the same compound?
**A.** 48.1 µM

**Q.** And the GI50 (NCI-H460 lung)?
**A.** 9.44 µM

**Q.** And the TGI (NCI-H460 lung)?
**A.** 23.3 µM

**Q.** What about the GI50 (NCI-H522 lung) of the same compound?
**A.** 11.8 µM

**Q.** What about the TGI (NCI-H522 lung) of the same compound?
**A.** 22.3 µM

**Q.** What about the GI50 (NCI/ADR-RES ovarian) of the same compound?
**A.** 13.2 µM

**Q.** And the TGI (NCI/ADR-RES ovarian)?
**A.** 32 µM

**Q.** And the GI50 (OVCAR-3 ovarian)?
**A.** 9.32 µM

**Q.** What about the TGI (OVCAR-3 ovarian) of the same compound?
**A.** 22.7 µM

**Q.** And the GI50 (OVCAR-5 ovarian)?
**A.** 23.6 µM

**Q.** And the TGI (OVCAR-5 ovarian)?
**A.** > 50 µM

**Q.** And the GI50 (OVCAR-8 ovarian)?
**A.** 13.1 µM

**Q.** What about the TGI (OVCAR-8 ovarian) of the same compound?
**A.** 30.6 µM

**Q.** And the GI50 (PC-3 prostate)?
**A.** 12.1 µM

**Q.** And the TGI (PC-3 prostate)?
**A.** > 50 µM

**Q.** And the GI50 (RPMI-8226 leukemia)?
**A.** 14.4 µM

**Q.** And the TGI (RPMI-8226 leukemia)?
**A.** > 50 µM

**Q.** And the GI50 (SF-268 CNS)?
**A.** 10.6 µM

**Q.** And the TGI (SF-268 CNS)?
**A.** 46.4 µM

**Q.** What about the GI50 (SF-295 CNS) of the same compound?
**A.** 17.4 µM

**Q.** And the TGI (SF-295 CNS)?
**A.** > 50 µM

**Q.** And the GI50 (SF-539 CNS)?
**A.** 17.8 µM

**Q.** And the TGI (SF-539 CNS)?
**A.** 34.1 µM

**Q.** And the GI50 (SK-MEL-2 melanoma)?
**A.** 18 µM

**Q.** And the TGI (SK-MEL-2 melanoma)?
**A.** > 50 µM

**Q.** And the GI50 (SK-MEL-28 melanoma)?
**A.** 0.143 µM

**Q.** And the TGI (SK-MEL-28 melanoma)?
**A.** 18.4 µM

**Q.** What about the GI50 (SK-MEL-5 melanoma) of the same compound?
**A.** 10.5 µM

**Q.** What about the TGI (SK-MEL-5 melanoma) of the same compound?
**A.** 21.6 µM

**Q.** What about the GI50 (SK-OV-3 ovarian) of the same compound?
**A.** 31.7 µM

**Q.** What about the TGI (SK-OV-3 ovarian) of the same compound?
**A.** > 50 µM

**Q.** And the GI50 (SN12C renal)?
**A.** 20.4 µM

**Q.** And the TGI (SN12C renal)?
**A.** > 50 µM

**Q.** What about the GI50 (SNB-19 CNS) of the same compound?
**A.** 15.2 µM

**Q.** What about the TGI (SNB-19 CNS) of the same compound?
**A.** > 50 µM

**Q.** What about the GI50 (SR leukemia) of the same compound?
**A.** 9.55 µM

**Q.** What about the TGI (SR leukemia) of the same compound?
**A.** 21.1 µM

**Q.** What about the GI50 (SW-620 colon) of the same compound?
**A.** 16.7 µM

**Q.** What about the TGI (SW-620 colon) of the same compound?
**A.** > 50 µM

**Q.** What about the GI50 (T-47D breast) of the same compound?
**A.** 10.8 µM

**Q.** And the TGI (T-47D breast)?
**A.** 39 µM

**Q.** And the GI50 (TK-10 renal)?
**A.** 21 µM

**Q.** What about the TGI (TK-10 renal) of the same compound?
**A.** > 50 µM

**Q.** What about the GI50 (U251 CNS) of the same compound?
**A.** 7.85 µM

**Q.** What about the TGI (U251 CNS) of the same compound?
**A.** 15.4 µM

**Q.** And the GI50 (UACC-257 melanoma)?
**A.** 16.1 µM

**Q.** What about the TGI (UACC-257 melanoma) of the same compound?
**A.** 36.6 µM

**Q.** And the GI50 (UACC-62 melanoma)?
**A.** 13 µM

**Q.** And the TGI (UACC-62 melanoma)?
**A.** 38.1 µM

**Q.** And the GI50 (UO-31 renal)?
**A.** 13.8 µM

**Q.** And the TGI (UO-31 renal)?
**A.** 33.6 µM
